Measured values taken from patent US20220007644A1, “COMPOSITIONS COMPRISING PYRIDINE CARBOXYLATE HERBICIDES WITH PHOTOSYSTEM II AND OPTIONAL HPPD INHIBITOR HERBICIDES” (Corteva Agriscience LLC, priority 2018, published 2022).

What was measured:
Assay type in all cases: in vivo
Details in all cases: 140 g ai/ha alone
[1] = tested on: ABUTH, Abutilon theophrasti (velvetleaf); experiment: Greenhouse postemergence herbicidal effect (visual injury, 20-22 d)
Text: (§1) Greenhouse Trial Methodology—Evaluation of Postemergence Herbicidal Effect
(§2) Seeds of the desired test plant species were planted in a 90:10% v/v (volume/volume) mixture of PRO-MIX® BX (Premier Tech Horticulture, Quakertown, Pa., USA) and PROFILE®GREENS GRADE™ (Profile Products LLC, Buffalo Grove, Ill., USA) planting mixture, which typically has a pH of 5.2 to 6.2 and an organic matter content of at least 50 percent, in plastic pots with a surface area of 103.2 square centimeters (cm^2). In some aspects, to help ensure good germination and healthy plants, a fungicide treatment and/or other chemical or physical treatment was applied. The plants were grown for 7-36 days (d) in a greenhouse with an approximate 14-hour (h) photoperiod which was maintained at about 23° C. during the day and 22° C. during the night. Nutrients and water were added on a regular basis and supplemental lighting was provided with overhead metal halide 1000-Watt lamps as necessary. The plants were employed for testing when they reached the second or third true leaf stage.
(§3) Emulsifiable concentrates of each of each pyridine carboxylate herbicide (Compound A or Compound B) were prepared at 100 grams acid equivalent per liter (g ae/L). The emulsifiable concentrates also included a safener, cloquintocet-mexyl, at 120 grams active ingredient per liter (g ai/L), unless otherwise noted below. An aliquot of each emulsifiable concentrate was placed in a 25 mL glass vial and diluted with an aqueous mixture of 1.25% (v/v) ACTIROB® B esterified rapeseed oil (Bayer Crop Science, Research Triangle Park, N.C., USA) or MSO® Concentrate with LECI-TECH® methylated soybean oil (Loveland Products, Loveland, Colo., USA) to obtain concentrated stock solutions at the highest application rate for each herbicide, based upon a 12 milliliter (mL) application volume at a rate of 187 liters per hectare (L/ha). The concentrated stock solutions were further diluted with an aqueous mixture of 1.25% v/v ACTIROB® B or MSO® Concentrate with LECI-TECH® to obtain stock solutions at reduced application rates for each herbicide. Spray solutions of the herbicide combinations (Compound A or Compound B plus PS-II herbicide and optional HPPD herbicide) were prepared by adding weighed amounts or aliquots of the PS-II herbicide and optional HPPD herbicide to the stock solutions of Compound A or Compound B to form 12-mL spray solutions in two- or three-way combinations.
(§4) The spray solutions were applied to the plant material with an overhead Mandel track sprayer equipped with 8002E nozzles calibrated to deliver 187 L/ha over an application area of 0.503 square meters (m^2) at a spray height of 18 inches ([…] centimeters (cm)) above the average plant canopy. Control plants were sprayed in the same manner with the solvent blank. All pyridine carboxylate herbicide (component a) application rates are given as “g ae/ha” and all PS II inhibitor herbicide (component b) and HPPD inhibitor herbicide (component c) application rates are given as “g ai/ha.”
(§5) The treated plants and control plants were placed in a greenhouse as described above and watered by sub-irrigation to prevent wash-off of the test compounds. After 20-22 d, the condition of the test plants as compared with that of the control plants was determined visually and scored on a scale of 0 to 100 percent where 0 corresponds to no injury and 100 corresponds to complete kill.

[2] = tested on: AMARE, Amaranthus retroflexus (pigweed); experiment: as above
Text: as §1, §2, §3, §4, §5

[3] = tested on: BRSNN, Brassica napus (spring rape); experiment: as above
Text: as §1, §2, §3, §4, §5

[4] = tested on: BRSNW, Brassica napus (winter rape); experiment: as above
Text: as §1, §2, §3, §4, §5

[5] = tested on: CHEAL, Chenopodium album L. (common lambsquarters); experiment: as above
Text: as §1, §2, §3, §4, §5

[6] = tested on: CIRAR, Cirsium arvense (Canada thistle); experiment: as above
Text: as §1, §2, §3, §4, §5

[7] = tested on: EPHHL, Euphorbia heterophylla (poinsettia); experiment: as above
Text: as §1, §2, §3, §4, §5

[8] = tested on: KCHSC, Kochia scoparia (kochia); experiment: as above
Text: as §1, §2, §3, §4, §5

[9] = tested on: MATCH, Matricaria chamomilla (wild chamomile); experiment: as above
Text: as §1, §2, §3, §4, §5

[10] = tested on: POLCO, Polygonum convolvulus (wild buckwheat); experiment: as above
Text: as §1, §2, §3, §4, §5

[11] = tested on: SASKR, Salsola kali (Russian thistle); experiment: as above
Text: as §1, §2, §3, §4, §5

[12] = tested on: SETFA, Setaria faberi (giant foxtail); experiment: as above
Text: as §1, §2, §3, §4, §5

[13] = tested on: SINAR, Sinapis arvensis (wild mustard); experiment: as above
Text: as §1, §2, §3, §4, §5

[14] = tested on: STEME, Stellaria media (chickweed); experiment: as above
Text: as §1, §2, §3, §4, §5

[15] = tested on: VIOTR, Viola tricolor (wild pansy); experiment: as above
Text: as §1, §2, §3, §4, §5

[16] = tested on: HORVS, Hordeum vulgare (spring barley); experiment: Greenhouse postemergence phytotoxicity on crop (visual injury, 20-22 d)
Text: as §1, §2, §3, §4, §5

[17] = tested on: TRZAS, Triticum aestivum (spring wheat); experiment: as above
Text: as §1, §2, §3, §4, §5

## N#Cc1cc(Br)c(O)c(Br)c1 [Bromoxynil, 3,5-dibromo-4-hydroxbenzonitrile, reference compound]
[1]
  visual injury Obs: 30%
[2]
  visual injury: 5%
[3]
  visual injury Obs: 3%
[4]
  visual injury: 10%
[5]
  visual injury: 0%
  visual injury Obs: 48%
[6]
  visual injury: 45%
  visual injury Obs: 60%
[7]
  visual injury Obs: 30%
[8]
  visual injury: 38%
  visual injury Obs: 35%
[9]
  visual injury: 5%
[10]
  visual injury: 100%
[10]; Fallopia convolvulus, post-emergence, read-out: visual injury Obs
  pest or weed control at 140 g/ha: 55%
[11]
  visual injury: 75%
[12]
  visual injury Obs: 0%
[13]
  visual injury: 10%
[14]
  visual injury Obs: 0%
[15]
  visual injury Obs: 0%
[16]
  visual injury: 0%
[17]
  visual injury: 0%
